Data taken from patent US12528777B2, “Quinazolinones derivatives for treatment of non-alcoholic fatty liver disease, preparation and use thereof” (Council of Scientific and Industrial Research, priority 2020, dated 2026).
“Also recorded” adds a separate entry of the source.

Key:
COP1 = COP1 (Homo sapiens, UniProt Q8NHY2); assay: In vitro ubiquitination of purified ATGL by COP1 with UbcH6; format: biochemical; parameters: host or cells: HEK293A; conditions: 5 μM compound, COP1 overexpressing HEK293A lysate
Description: Purification of ATGL protein and obtaining COP1 overexpressing cell lysate: Myc-ATGL plasmid and Myc-DDK-COP1 plasmid ([…] each) were transfected separately in cultured HEK293A cells with the help of Lipofectamine2000 (Invitrogen). Cells were harvested in Lysis Buffer and protein solution was extracted as described previously. The Lysis Buffer used to harvest COP1 overexpressing cells had 0.1% SDS supplemented in it. The concentration of protein was estimated using Bradford assay. For source of E3 ligase, the total cell lysate from COP1 overexpressing HEK293A cells were used.
For purification of Myc-ATGL: 1 ml of Ni^2+-NTA resin (Roche) was taken in a 15 ml centrifuge tube and centrifuged at 2000 RPM for 5 minutes. The upper ethanol layer was discarded and the pellet was washed in 1×PBS twice to remove any remaining traces of ethanol. The pellet was finally washed once with Lysis Buffer for equilibration. […] The tube was incubated overnight at 4° C. in a rotary shaker.
The next day, the solution was centrifuged at 2000 RPM for 10 minutes and the supernatant collected. Lysis Buffer (containing protease inhibitor cocktail twice the previous concentration) was used for washing the beads twice to remove non-specific and unattached reactants in a stringent condition. The beads were finally washed once with 1×PBS containing the same amount of protease inhibitor for equilibration. 300 μl of 500 mM Imidazole (Sigma Aldrich) solution in 1×PBS was added to the resin for elution of ATGL and centrifuged at 2000 RPM for 30 minutes and the eluted protein was collected. To the separated resin, 300 μl of 1M Imidazole solution was added and centrifuged at 2000 RPM for 30 minutes and the second elute was collected. […] of eluted protein from each elution was boiled with 5 μl of Laemmli's buffer at 95° C. for 10 minutes and run in 10% SDS-PAGE gel. The supernatant collected before elution of ATGL and the proteins still attached to the Ni^2+-NTA resin were also run in the SDS-PAGE. The resolved proteins were subsequently transferred on PVDF membranes and probed with anti-myc primary antibody to check the presence of purified ATGL in the elute. Also to check the yield of the purified protein, 40 μl of the elute was run in 10% SDS page and stained with Coomassie Brilliant Blue solution followed by destaining with methanol, glacial acetic acid and water in a 50:40:10 ratio.
For identifying the E2 ubiquitin-conjugating enzyme responsible for ATGL ubiquitination by COP1, an in vitro ubiquitinylation kit (Enzo Life Sciences) was used. The assay was reconstituted as per manufacturer's protocol with the panel of E2 conjugating enzymes provided and other required components at the mentioned concentrations. The reaction was carried out for 6 hours following which it was quenched as per directions with the provided 2× non-reducing gel buffer and then analysed by western blotting.
Having identified the E2 ubiquitin conjugating enzyme as UbcH6, ubiquitination assay was set up in vitro as described previously with 5 μM of the compound 9, 107, 171, 179 and 73 followed by quenching and analysis by western blotting.
Ubiquitination of a target protein is carried out in a three step process involving three different enzymes: E1 ubiquitin activating enzyme, E2 ubiquitin conjugating enzyme and E3 ubiquitin ligase. In humans, there is only one E1 ubiquitin activating enzyme and multiple E2 and E3 enzymes. […]

ATGL = assay: Immunoprecipitation assay of ATGL ubiquitination in myc-ATGL HepG2 cells; format: cell-based; conditions: 5 μM, 24 hours, MG-132, poly ubiquitin smear
Protocol: To this end, an immunoprecipitation assay was performed wherein HepG2 cells overexpressing myc-ATGL were transfected with HA-Ubiquitin and treated with 5 μM of the compounds 9, 10, 107, 215, 219 and 238. MG-132, a proteasomal inhibitor, was added 4 hours before harvesting the cells. Immune complexes were pulled down with anti-myc antibody and immunoblot was done using anti-HA antibody. The resultant smears on the blot reflect the ubiquitination status of ATGL.
For checking the change in the ubiquitination status of ATGL on compound treatment, Myc-ATGL expressing HepG2 cells (ATGL overexpressing cell line) was transfected with 2 μg of a plasmid harboring the HA tagged ubiquitin gene using Lipofectamine 2000 reagent (Invitrogen) in OptiMEM media (HiMedia). Fresh DMEM complete media was added after 8-10 hours of transfection. After roughly 24 hours of transfection, 5 μM of the compounds 9, 10 and 107 was added and cells were harvested post 24 hours of treatment. 4 hours prior to cell harvesting, 10 μM of proteasomal inhibitor MG132 (Calbiochem, Merck Millipore) was added to the cells. Proteins were isolated from the cells and protein concentration was estimated as described previously. 30 μl of PureProteome Protein A/G Mix Magnetic Beads (Merck Millipore) was taken in a 1.5 ml microcentrifuge tube, placed in a Magna Rack (Merck Millipore) and allowed to adhere to the side of the tube. 200 μg of protein was used for immunoprecipitation reaction in a reaction volume of 1 ml. 2 μl of anti-Myc primary antibody (Cell Signaling Technology) was added and the tube was incubated overnight at 4° C. in a rotary shaker. The next day, the tube was placed back in the Magna Rack and the beads were allowed to attach to the tube. To remove non-specific and unattached reactants, 1×PBS and 0.1% Triton-X was used for washing. 2× loading dye and Lysis Buffer was added and heated at 95° C. for 10 minutes to allow the immune complex to dislodge from the magnetic beads. Western Blot was performed subsequently as described before with anti-HA primary antibody for immunoblotting (Cell Signaling Technology). The activity trends of the synthesized compounds are disclosed in Table-5.

COP1, sequence (Q8NHY2 whole entry): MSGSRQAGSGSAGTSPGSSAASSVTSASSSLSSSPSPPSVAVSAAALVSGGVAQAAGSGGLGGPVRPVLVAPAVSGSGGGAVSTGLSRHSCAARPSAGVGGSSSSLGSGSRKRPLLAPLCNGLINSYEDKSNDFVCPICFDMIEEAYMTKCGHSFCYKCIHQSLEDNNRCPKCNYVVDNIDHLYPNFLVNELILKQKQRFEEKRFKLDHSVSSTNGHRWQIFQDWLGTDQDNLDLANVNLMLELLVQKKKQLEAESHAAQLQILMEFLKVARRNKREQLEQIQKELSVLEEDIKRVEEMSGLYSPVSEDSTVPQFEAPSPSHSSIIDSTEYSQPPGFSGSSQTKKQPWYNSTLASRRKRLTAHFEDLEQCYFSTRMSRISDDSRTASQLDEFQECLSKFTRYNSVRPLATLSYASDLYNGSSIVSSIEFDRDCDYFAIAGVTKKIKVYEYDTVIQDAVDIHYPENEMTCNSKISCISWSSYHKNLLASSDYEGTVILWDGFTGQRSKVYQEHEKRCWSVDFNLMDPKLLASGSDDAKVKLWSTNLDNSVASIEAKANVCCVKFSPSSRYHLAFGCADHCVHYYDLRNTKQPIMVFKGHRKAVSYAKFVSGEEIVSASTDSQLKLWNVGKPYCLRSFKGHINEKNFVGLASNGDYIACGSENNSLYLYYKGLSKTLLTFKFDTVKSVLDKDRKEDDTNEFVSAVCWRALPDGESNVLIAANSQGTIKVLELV

**Q.** `COCC(C)n1cnc2ccc(NC(=O)Nc3cccc(C(C)=O)c3)cc2c1=O` (centres unmarked) [Compound 179, 1-(3-acetylphenyl)-3-(3-(1-methoxypropan-2-yl)-4-oxo-3,4-dihydroquinazolin-6-yl)urea] was tested. Which “ATGL ubiquitination by COP1 in vitro” value (COP1) did it give?
**A.** Its value is “effective in reducing the ubiquitination of ATGL by COP1; also recorded: significant efficacy in curbing ATGL ubiquitination by COP1”.

**Q.** Which results are given for `COCCn1c(C)nc2ccc(NC(=O)Nc3cccc(C(C)=O)c3)cc2c1=O` [Compound 107, 1-(3-acetylphenyl)-3-(3-(2-methoxyethyl)-2-methyl-4-oxo-3,4-dihydroquinazolin-6-yl)urea]?
**A.** ATGL ubiquitination in HepG2 cells (ATGL): effective in reducing the ATGL ubiquitination by COP1; also recorded: capability of subtly reducing ubiquitination of ATGL; ATGL ubiquitination by COP1 in vitro (COP1): effective in reducing the ubiquitination of ATGL by COP1; also recorded: significant efficacy in curbing ATGL ubiquitination by COP1

**Q.** What does the source list for `COCCn1cnc2ccc(NC(=O)Nc3cccc(C(C)=O)c3)cc2c1=O` [Compound 9, 1-(3-acetylphenyl)-3-(3-(2-methoxyethyl)-4-oxo-3,4-dihydroquinazolin-6-yl)urea]?
**A.** ATGL ubiquitination in HepG2 cells (ATGL): effective in reducing the ATGL ubiquitination by COP1; also recorded: subtle reduction in the ubiquitination smear; ATGL ubiquitination by COP1 in vitro (COP1): effective in reducing the ubiquitination of ATGL by COP1; also recorded: significant efficacy in curbing ATGL ubiquitination by COP1

**Q.** How did the “ATGL ubiquitination in HepG2 cells” value (ATGL) turn out when `COCCn1c(-c2ccncc2)nc2ccc(NC(=O)Nc3cccc(C(C)=O)c3)cc2c1=O` [Compound 219, 1-(3-acetylphenyl)-3-(3-(2-methoxyethyl)-4-oxo-2-(pyridin-4-yl)-3,4-dihydroquinazolin-6-yl)urea] was run?
**A.** The value was “no such effects; also recorded: no subtle reduction in the ubiquitination smear”.

**Q.** How did the “ATGL ubiquitination in HepG2 cells” value (ATGL) turn out when `COCCn1c(CN2CCCCC2)nc2ccc(NC(=O)Nc3cccc(C(C)=O)c3)cc2c1=O` [Compound 238, 1-(3-acetylphenyl)-3-(3-(2-methoxyethyl)-4-oxo-2-(piperidin-1-ylmethyl)-3,4-dihydroquinazolin-6-yl)urea] was run?
**A.** Its value is “decrease ATGL ubiquitination by COP1; also recorded: decreased”.

**Q.** `COCCn1c(-c2cccnc2)nc2ccc(NC(=O)Nc3cccc(C(C)=O)c3)cc2c1=O` [Compound 215, 1-(3-acetylphenyl)-3-(3-(2-methoxyethyl)-4-oxo-2-(pyridin-3-yl)-3,4-dihydroquinazolin-6-yl)urea] was tested. Which “ATGL ubiquitination in HepG2 cells” value (ATGL) did it give?
**A.** Its value is “no such effects; also recorded: no subtle reduction in the ubiquitination smear”.
